Measured values published in US9163256B2, “Mutant receptors and their use in a nuclear receptor-based inducible gene expression system” (priority 2004, dated 2015).

Legend:
Assay in all cases: cell-based
CfEcR-DEF mutant W238Y = CfEcR-DEF mutant W238Y (Choristoneura fumiferana, UniProt O77255, W521Y); settings: mutant W238Y; for EC50: read-out: EC50
Method: (§1) This construct was prepared in the same way as in switch 1.1 above except wild-type CfEcR-DEF was replaced with mutant CfEcR-DEF comprising a ligand binding domain comprising a substitution mutation selected from Table 1 below.
(§2) DNAs were transfected into mouse NIH3T3 cells (ATCC) as follows. Standard methods for culture and maintenance of the cells were followed. Cells were harvested and plated 96-well plates at 2,500 cells per well, in 50 μL of growth medium containing 10% fetal bovine serum (FBS). Twenty-four hours later, the cells were treated with 35 μL of serum-free growth medium containing either dimethylsulfoxide (DMSO; control) or a DMSO solution of ligand. The cells were then transfected using Superfect (Qiagen Inc.) transfection reagent. For each well, 0.625 μL of Superfect was mixed with 14.2 μL of serum-free growth medium. 0.16 μg of reporter construct and 0.04 μg of each receptor construct were added to the transfection reagent mix. The contents of the transfection mix were mixed in a vortex mixer and let stand at room temperature for 30 minutes. At the end of incubation, 15 μL of transfection mix was added to the cells. The cells were maintained at 37° C. and 5% CO2 for 48 hours in 5% FBS.
(§3) Reporter Assays: Cells were harvested 40 hours after adding ligands. 125 μL of passive lysis buffer (part of Dual-Luciferase reporter assay system from Promega Corporation) were added to each well of the […] plate. The plates were placed on a rotary shaker for 15 minutes. Twenty μL of lysate were assayed. Luciferase activity was measured using Dual-Luciferase reporter assay system from Promega Corporation following the manufacturer's instructions. Fold induction (FI) activities were calculated by dividing relative light units (“RLU”) in ligand treated cells with RLU in DMSO treated cells (untreated control).

CfEcR-DEF mutant V96S = CfEcR-DEF mutant V96S (Choristoneura fumiferana, UniProt O77255, V379S); settings: mutant V96S; for EC50: read-out: EC50; for Rel Max FI: relative to max fold induction of GS-E ligand
Method: as §1, §2, §3

[1] = biological target: CfEcR-DEF mutant V128F/A110P (Choristoneura fumiferana, UniProt O77255, A393P/V411F); settings: mutant V128F/A110P; for EC50: read-out: EC50
CfEcR-DEF mutant V128F/A110P, sequence (P28702 299-449, stated change not applied): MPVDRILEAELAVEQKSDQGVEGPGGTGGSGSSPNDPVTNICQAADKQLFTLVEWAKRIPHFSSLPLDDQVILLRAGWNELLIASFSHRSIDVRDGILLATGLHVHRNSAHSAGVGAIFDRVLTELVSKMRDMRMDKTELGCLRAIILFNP
CfEcR-DEF mutant V128F/A110P, sequence (O77255 entry or part of it A393P/V411F): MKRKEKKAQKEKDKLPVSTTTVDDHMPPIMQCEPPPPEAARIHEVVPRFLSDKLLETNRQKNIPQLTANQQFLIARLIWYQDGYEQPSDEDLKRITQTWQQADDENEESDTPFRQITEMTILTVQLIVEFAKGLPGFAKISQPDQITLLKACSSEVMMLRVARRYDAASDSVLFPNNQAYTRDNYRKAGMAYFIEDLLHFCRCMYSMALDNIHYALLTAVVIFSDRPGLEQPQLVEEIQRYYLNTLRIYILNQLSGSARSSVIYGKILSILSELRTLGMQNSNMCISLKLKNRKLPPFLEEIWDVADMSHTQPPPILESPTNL
Method: as §1, §2, §3

CfEcR-DEF mutant Y120W = CfEcR-DEF mutant Y120W (Choristoneura fumiferana, UniProt O77255, Y403W); settings: mutant Y120W; for EC50: read-out: EC50
CfEcR-DEF mutant Y120W, sequence (O77255 entry or part of it Y403W): as the sequence (O77255 entry or part of it A393P/V411F) above, with P175A, Y185W, F193V counted along it
CfEcR-DEF mutant Y120W, sequence (P28702 299-449, further chain): as the sequence (P28702 299-449, stated change not applied) above
Method: as §1, §2, §3

CfEcR-DEF mutant F109L = CfEcR-DEF mutant F109L (Choristoneura fumiferana, UniProt O77255, F392L); settings: mutant F109L; for EC50: read-out: EC50
CfEcR-DEF mutant F109L, sequence (P28702 299-449): as the sequence (P28702 299-449, stated change not applied) above
CfEcR-DEF mutant F109L, sequence (O77255 entry or part of it F392L): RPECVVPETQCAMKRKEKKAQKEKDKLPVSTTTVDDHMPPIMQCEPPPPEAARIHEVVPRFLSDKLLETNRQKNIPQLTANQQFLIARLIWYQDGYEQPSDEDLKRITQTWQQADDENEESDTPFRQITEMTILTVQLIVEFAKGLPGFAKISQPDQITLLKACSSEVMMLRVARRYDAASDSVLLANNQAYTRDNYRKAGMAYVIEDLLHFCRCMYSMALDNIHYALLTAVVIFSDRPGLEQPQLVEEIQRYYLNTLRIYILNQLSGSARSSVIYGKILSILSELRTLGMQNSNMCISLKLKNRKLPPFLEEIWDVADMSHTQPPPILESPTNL
Method: as §1, §2, §3

CfEcR-DEF mutant R95W = CfEcR-DEF mutant R95W (Choristoneura fumiferana, UniProt O77255, R378W); settings: mutant R95W; for EC50: read-out: EC50
Method: as §1, §2, §3

CfEcR-DEF mutant I51L = CfEcR-DEF mutant I51L (Choristoneura fumiferana, UniProt O77255, I334L); settings: mutant I51L; for EC50: read-out: EC50
CfEcR-DEF mutant I51L, sequence (O77255 entry or part of it I334L): as the sequence (O77255 entry or part of it F392L) above, with I128L, L186F counted along it
CfEcR-DEF mutant I51L, sequence (P28702 299-449, further chain): as the sequence (P28702 299-449, stated change not applied) above
Method: as §1, §2, §3

CfEcR-DEF mutant A110E = CfEcR-DEF mutant A110E (Choristoneura fumiferana, UniProt O77255, A393E); settings: mutant A110E; for EC50: read-out: EC50; for Rel Max FI: relative to max fold induction of GS-E ligand
CfEcR-DEF mutant A110E, sequence (P28702 299-449, stated change not applied): as above
CfEcR-DEF mutant A110E, sequence (O77255 entry or part of it A393E): as the sequence (O77255 entry or part of it F392L) above, with L186F, A187E counted along it
Method: as §1, §2, §3

CfEcR-DEF mutant L132V = CfEcR-DEF mutant L132V (Choristoneura fumiferana, UniProt O77255, L415V); settings: mutant L132V; for EC50: read-out: EC50; for Rel Max FI: relative to max fold induction of GS-E ligand
Method: as §1, §2, §3

CfEcR-DEF mutant T52L = CfEcR-DEF mutant T52L (Choristoneura fumiferana, UniProt O77255, T335L); settings: mutant T52L; for EC50: read-out: EC50; for Rel Max FI: relative to max fold induction of GS-E ligand
Method: as §1, §2, §3

CfEcR-DEF mutant V96W = CfEcR-DEF mutant V96W (Choristoneura fumiferana, UniProt O77255, V379W); settings: mutant V96W; for EC50: read-out: EC50
Method: as §1, §2, §3

CfEcR-DEF mutant V96L = CfEcR-DEF mutant V96L (Choristoneura fumiferana, UniProt O77255, V379L); settings: mutant V96L; for EC50: read-out: EC50
Method: as §1, §2, §3

CfEcR-DEF mutant L234I = CfEcR-DEF mutant L234I (Choristoneura fumiferana, UniProt O77255, L517I); settings: mutant L234I; for EC50: read-out: EC50
CfEcR-DEF mutant L234I, sequence (P28702 299-449): as the sequence (P28702 299-449, stated change not applied) above
CfEcR-DEF mutant L234I, sequence (O77255 entry or part of it L517I): as the sequence (O77255 entry or part of it F392L) above, with L186F, L311I counted along it
Method: as §1, §2, §3

CfEcR-DEF mutant W238P = CfEcR-DEF mutant W238P (Choristoneura fumiferana, UniProt O77255, W521P); settings: mutant W238P; for EC50: read-out: EC50; for Rel Max FI: relative to max fold induction of GS-E ligand
CfEcR-DEF mutant W238P, sequence (P28702 299-449): as the sequence (P28702 299-449, stated change not applied) above
CfEcR-DEF mutant W238P, sequence (O77255 entry or part of it W521P): as the sequence (O77255 entry or part of it A393P/V411F) above, with P175A, F193V, W303P counted along it
Method: as §1, §2, §3

CfEcR-DEF mutant F109W = CfEcR-DEF mutant F109W (Choristoneura fumiferana, UniProt O77255, F392W); settings: mutant F109W; for EC50: read-out: EC50; for Rel Max FI: relative to max fold induction of GS-E ligand
Method: as §1, §2, §3

CfEcR-DEF mutant M54W = CfEcR-DEF mutant M54W (Choristoneura fumiferana, UniProt O77255, M337W); settings: mutant M54W; for EC50: read-out: EC50
Method: as §1, §2, §3

CfEcR-DEF mutant L234M = CfEcR-DEF mutant L234M (Choristoneura fumiferana, UniProt O77255, L517M); settings: mutant L234M; for EC50: read-out: EC50
Method: as §1, §2, §3

[2] = biological target: CfEcR-DEF mutant N119F/V96T (Choristoneura fumiferana, UniProt O77255, N402F/V379T); settings: mutant N119F/V96T; for EC50: read-out: EC50; for Rel Max FI: relative to max fold induction of GS-E ligand
Method: as §1, §2, §3

CfEcR-DEF mutant A110W = CfEcR-DEF mutant A110W (Choristoneura fumiferana, UniProt O77255, A393W); settings: mutant A110W; for EC50: read-out: EC50
Method: as §1, §2, §3

CfEcR-DEF mutant M54T = CfEcR-DEF mutant M54T (Choristoneura fumiferana, UniProt O77255, M337T); settings: mutant M54T; for EC50: read-out: EC50; for Rel Max FI: relative to max fold induction of GS-E ligand
CfEcR-DEF mutant M54T, sequence (O77255 entry or part of it M337T): as the sequence (O77255 entry or part of it F392L) above, with M131T, L186F counted along it
CfEcR-DEF mutant M54T, sequence (P28702 299-449, further chain): as the sequence (P28702 299-449, stated change not applied) above
Method: as §1, §2, §3

CfEcR-DEF mutant M92L = CfEcR-DEF mutant M92L (Choristoneura fumiferana, UniProt O77255, M375L); settings: mutant M92L; for EC50: read-out: EC50
Method: as §1, §2, §3

[3] = relative to max fold induction of GS-E ligand

CfEcR-DEF mutant W238Y, sequence (P28702 299-449): as the sequence (P28702 299-449, stated change not applied) above
CfEcR-DEF mutant W238Y, sequence (O77255 entry or part of it W521Y): as the sequence (O77255 entry or part of it A393P/V411F) above, with P175A, F193V, W303Y counted along it

Structure (SMILES): CC(C)(O)CC[C@@H](O)[C@](C)(O)[C@H]1CC[C@@]2(O)C3=CC(=O)[C@@H]4C[C@@H](O)[C@@H](O)C[C@]4(C)[C@H]3CC[C@]12C [20E, 20-hydroxyecdysone]
- Rel Max FI (CfEcR-DEF mutant W238Y): 0.18
- EC50 (CfEcR-DEF mutant W238Y): > 33 µM
- EC50 (CfEcR-DEF mutant V96S): > 33 µM
- Rel Max FI (CfEcR-DEF mutant V96S): 0.02
- Rel Max FI [1]: 0
- EC50 [1]: > 33 µM
- Rel Max FI [1, 3]: 0.00
- Rel Max FI (CfEcR-DEF mutant Y120W): 0
- EC50 (CfEcR-DEF mutant Y120W): > 33 µM
- Rel Max FI (CfEcR-DEF mutant F109L): 0.09
- EC50 (CfEcR-DEF mutant F109L): > 33 µM
- Rel Max FI (CfEcR-DEF mutant R95W): 0
- EC50 (CfEcR-DEF mutant R95W): > 33 µM
- Rel Max FI (CfEcR-DEF mutant I51L): 0
- EC50 (CfEcR-DEF mutant I51L): > 33 µM
- EC50 (CfEcR-DEF mutant A110E): > 33 µM
- Rel Max FI (CfEcR-DEF mutant A110E): 0
- EC50 (CfEcR-DEF mutant L132V): > 33 µM
- Rel Max FI (CfEcR-DEF mutant L132V): 0
- EC50 (CfEcR-DEF mutant T52L): > 33 µM
- Rel Max FI (CfEcR-DEF mutant T52L): 0
- Rel Max FI (CfEcR-DEF mutant V96W): 0
- EC50 (CfEcR-DEF mutant V96W): > 33 µM
- Rel Max FI (CfEcR-DEF mutant V96L): 0
- EC50 (CfEcR-DEF mutant V96L): > 33 µM
- Rel Max FI (CfEcR-DEF mutant L234I): 0
- EC50 (CfEcR-DEF mutant L234I): > 33 µM
- EC50 (CfEcR-DEF mutant W238P): > 33 µM
- Rel Max FI (CfEcR-DEF mutant W238P): 0
- EC50 (CfEcR-DEF mutant F109W): > 33 µM
- Rel Max FI (CfEcR-DEF mutant F109W): 0
- Rel Max FI (CfEcR-DEF mutant M54W): 0
- EC50 (CfEcR-DEF mutant M54W): > 33 µM
- Rel Max FI (CfEcR-DEF mutant L234M): 0
- EC50 (CfEcR-DEF mutant L234M): > 33 µM
- EC50 [2]: ~8 µM
- Rel Max FI [2]: 0.46
- Rel Max FI (CfEcR-DEF mutant A110W): 0
- EC50 (CfEcR-DEF mutant A110W): > 33 µM
- EC50 (CfEcR-DEF mutant M54T): > 33 µM
- Rel Max FI (CfEcR-DEF mutant M54T): 0
- Rel Max FI (CfEcR-DEF mutant M92L): 0
- EC50 (CfEcR-DEF mutant M92L): > 33 µM

Structure (SMILES): CC(C)CC[C@@H](O)[C@](C)(O)[C@H]1CC[C@@]2(O)C3=CC(=O)[C@@H]4C[C@@H](O)[C@@H](O)C[C@]4(C)[C@H]3CC[C@]12C [PonA, ponasterone A]
- Rel Max FI (CfEcR-DEF mutant W238Y): 0.07
- EC50 (CfEcR-DEF mutant W238Y): > 33 µM
- EC50 (CfEcR-DEF mutant V96S): ~2 µM
- Rel Max FI (CfEcR-DEF mutant V96S): 0.92
- Rel Max FI [1]: 0
- EC50 [1]: > 33 µM
- Rel Max FI [1, 3]: 0.00
- Rel Max FI (CfEcR-DEF mutant Y120W): 0.69
- EC50 (CfEcR-DEF mutant Y120W): ~10 µM
- Rel Max FI (CfEcR-DEF mutant F109L): 0.03
- EC50 (CfEcR-DEF mutant F109L): > 33 µM
- Rel Max FI (CfEcR-DEF mutant R95W): 0
- EC50 (CfEcR-DEF mutant R95W): > 33 µM
- Rel Max FI (CfEcR-DEF mutant I51L): 0.66
- EC50 (CfEcR-DEF mutant I51L): ~8 µM
- EC50 (CfEcR-DEF mutant A110E): ~10 µM
- Rel Max FI (CfEcR-DEF mutant A110E): 1.09
- EC50 (CfEcR-DEF mutant L132V): 6.56 µM
- Rel Max FI (CfEcR-DEF mutant L132V): 0.57
- EC50 (CfEcR-DEF mutant T52L): 5.03 µM
- Rel Max FI (CfEcR-DEF mutant T52L): 0.54
- Rel Max FI (CfEcR-DEF mutant V96W): 0.83
- EC50 (CfEcR-DEF mutant V96W): ~3.3 µM
- Rel Max FI (CfEcR-DEF mutant V96L): 0.49
- EC50 (CfEcR-DEF mutant V96L): 7.49 µM
- Rel Max FI (CfEcR-DEF mutant L234I): 0.56
- EC50 (CfEcR-DEF mutant L234I): ~7 µM
- EC50 (CfEcR-DEF mutant W238P): ~3.3 µM
- Rel Max FI (CfEcR-DEF mutant W238P): 0.73
- EC50 (CfEcR-DEF mutant F109W): 4.06 µM
- Rel Max FI (CfEcR-DEF mutant F109W): 0.08
- Rel Max FI (CfEcR-DEF mutant M54W): 0.46
- EC50 (CfEcR-DEF mutant M54W): ~10 µM
- Rel Max FI (CfEcR-DEF mutant L234M): 0.02
- EC50 (CfEcR-DEF mutant L234M): > 33 µM
- EC50 [2]: ~0.3 µM
- Rel Max FI [2]: 2.02
- Rel Max FI (CfEcR-DEF mutant A110W): 0.01
- EC50 (CfEcR-DEF mutant A110W): > 33 µM
- EC50 (CfEcR-DEF mutant M54T): 9.46 µM
- Rel Max FI (CfEcR-DEF mutant M54T): 0.5
- Rel Max FI (CfEcR-DEF mutant M92L): 0
- EC50 (CfEcR-DEF mutant M92L): > 33 µM
